According to publication PMC7766155, “Improved Stability and Activity of a Marine Peptide-N6NH2 against Edwardsiella tarda and Its Preliminary Application in Fish” (Marine Drugs, 2020):
Like-named read-outs stand apart in the source and are kept apart here. Where a SMILES comes first, the peptide text is derived from it. Bridges are numbered along the chain shown (N, C = ends).

Columns and labels:
[1] = test system: E. tarda genomic DNA; test: Gel migration (DNA binding) assay; set-up: species or system Edwardsiella tarda; conditions: 0.25 μg DNA, 10 min at room temperature, 0.7% agarose gel; mass ratios 0–10 tested
Method: (§1) The genomic DNA of E. tarda or O. niloticus was incubated for 10 min at room temperature with different concentrations of N6 and N6NH2 in binding buffer (5% glycerol, 10 mM Tris-HCl, pH 8.0, 20 mM KCl, 1 mM EDTA, 1 mM dithiothreitol and […] BSA). The mass ratios of peptides and DNA were 0, 0.5, 1, 2, 4, 6, 8, and 10, respectively. The migration of DNA was evaluated by electrophoresis on a 0.7% agarose gel.

[2] = test system: fish genome DNA; test: Gel migration (DNA binding) assay; conditions: O. niloticus genomic DNA, Supplementary Figure S2
Method: as §1

[3] = LPS binding, BODIPY-TR-cadaverine displacement; set-up: species or system E. coli; conditions: 0.5 µM LPS, 5 μM BC, Tris buffer pH 7.4; 0.049 μM to 50 μM; excitation/emission 580/620 nm
[4] = test system: Aeromonas veronii
[5] = test system: Escherichia coli CVCC195
[6] = test system: E. coli CVCC1515
[7] = test system: Salmonella typhimurium CVCC533
[8] = test system: S. typhimurium ATCC14028
[9] = test system: S. pullorum CVCC1802
[10] = test system: Pseudomonas aeruginosa CICC21630
[11] = test system: S. aureus ATCC25923
[12] = test system: S. hyicus 437-2
[13] = broth microdilution, MHB, 1 × 10^5 CFU/mL, 37 °C 18–24 h, n = 3, some N6 data from ref 19

## CC(C)[C@@H]1NC(=O)CNC(=O)[C@H](CC(N)=O)NC(=O)[C@H](CCCNC(=N)N)NC(=O)[C@H](Cc2ccc(O)cc2)NC(=O)[C@H](C(C)C)NC(=O)[C@@H](NC(=O)[C@@H](NC(=O)[C@H](CC(N)=O)NC(=O)[C@H](Cc2c[nH]c3ccccc23)NC(=O)[C@H](C)NC(=O)[C@H](Cc2ccccc2)NC(=O)CN)C(C)C)CSSC[C@@H](C(=O)N[C@@H](Cc2c[nH]cn2)C(=O)N[C@@H](CCCNC(=N)N)C(=O)N[C@@H](CCCNC(=N)N)C(=O)N[C@@H](C)C(=O)N[C@@H](CC(N)=O)C(=O)O)NC(=O)[C@H](C(C)C)NC(=O)[C@H](CCCNC(=N)N)NC1=O [Peptide N6] (H-GFAWNVCVYRNGVRVCHRRAN-OH; disulfide 7-16; N-terminus assumed)
[1]
  mass ratio of peptide and DNA at which migration of E. tarda genome DNA is inhibited: greater than 1
[2]
  mass ratio at which migration of fish genome DNA is prevented: 2
[3]
  binding to LPS (displacement of BC probe): potent LPS-binding affinity
[4]
  MIC: 2.58 µM
[4]; [13]
  MIC: 6.4 µg/mL
[5]; CVCC195
  MIC: 0.2 µM
[5]; [13]
  MIC: 0.5 µg/mL
[6]; CVCC1515
  MIC: 0.4 µM
[6]; [13]
  MIC: 1 µg/mL
[7]; [13]
  MIC: 1 µg/mL
[7]; murium CVCC533
  MIC: 0.4 µM
[8]; ATCC14028
  MIC: 0.8 µM
[8]; [13]
  MIC: 2 µg/mL
[9]; CVCC1802
  MIC: 0.2 µM
[9]; [13]
  MIC: 0.5 µg/mL
[10]; CICC21630
  MIC: 1.6 µM
[10]; [13]
  MIC: 4 µg/mL
[11]; ATCC25923
  MIC: 0.1 µM
[11]; [13]
  MIC: 0.25 µg/mL
[12]
  MIC: 25.8 µM
[12]; [13]
  MIC: 64 µg/mL
